{"source": "paper PMC5047057", "about": "(Oral oncology, 2016)", "key": {"clinical": {"assay": "clinical", "design": "species or system human", "settings": "in vivo; for Tmax / AUC(0-t) / Cmax: human, po; for AUC(0-t): AUC0-24h"}, "[1]": {"tested_on": "patients with recurrent/metastatic head and neck squamous cell carcinoma (HNSCC)"}, "Rb-positive cell lines": {"tested_on": "Rb-positive cell lines", "settings": "cited from earlier work"}, "[2]": {"tested_on": "Rb-negative tumor xenografts", "settings": "cited from earlier work"}, "[3]": {"tested_on": "patients with Rb-positive cancers", "settings": "cited from earlier work"}, "[4]": {"settings": "Palbociclib 125 mg (n=6 pts) with weekly cetuximab, all cycles"}}, "data": [{"smiles": "CC(=O)c1c(C)c2cnc(Nc3ccc(N4CCNCC4)cn3)nc2n(C2CCCC2)c1=O", "note": "[palbociclib]", "values": [{"measurement": "Tmax", "setting": "clinical; 100 mg", "result": 8, "unit": "h"}, {"measurement": "AUC(0-t)", "setting": "clinical; 100 mg", "result": 1480, "unit": "ng·h/mL"}, {"measurement": "Cmax", "setting": "clinical; 100 mg", "result": 70, "unit": "ng/mL"}, {"measurement": "Tmax", "setting": "clinical; 100 mg, Tmax", "result": 8, "unit": "h"}, {"measurement": "AUC(0-t)", "setting": "clinical; 125 mg", "result": 2230, "unit": "ng·h/mL"}, {"measurement": "Cmax", "setting": "clinical; 125 mg", "result": 145, "unit": "ng/mL"}, {"measurement": "Tmax", "setting": "clinical; 125 mg, Tmax", "result": 8, "unit": "h"}, {"measurement": "Dose-normalized Cmax and AUC0-24h, 100 vs 125 mg daily oral doses", "setting": "clinical", "result": "comparable"}, {"measurement": "Acneiform Rash, Grade 3 (number of patients)", "setting": "[1]; [4]", "result": 0}, {"measurement": "Acneiform Rash, Grades 1-2 (number of patients)", "setting": "[1]; [4]", "result": 5}, {"measurement": "Anemia, Grade 3 (number of patients)", "setting": "[1]; [4]", "result": 0}, {"measurement": "Anemia, Grades 1-2 (number of patients)", "setting": "[1]; [4]", "result": 6}, {"measurement": "Diarrhea, Grade 3 (number of patients)", "setting": "[1]; [4]", "result": 0}, {"measurement": "Diarrhea, Grades 1-2 (number of patients)", "setting": "[1]; [4]", "result": 1}, {"measurement": "Fatigue, Grade 3 (number of patients)", "setting": "[1]; [4]", "result": 0}, {"measurement": "Fatigue, Grades 1-2 (number of patients)", "setting": "[1]; [4]", "result": 3}, {"measurement": "Hypomagnesemia, Grade 3 (number of patients)", "setting": "[1]; [4]", "result": 0}, {"measurement": "Hypomagnesemia, Grades 1-2 (number of patients)", "setting": "[1]; [4]", "result": 2}, {"measurement": "Infusion Reaction, Grade 3 (number of patients)", "setting": "[1]; [4]", "result": 0}, {"measurement": "Infusion Reaction, Grades 1-2 (number of patients)", "setting": "[1]; [4]", "result": 1}, {"measurement": "Nausea, Grade 3 (number of patients)", "setting": "[1]; [4]", "result": 0}, {"measurement": "Nausea, Grades 1-2 (number of patients)", "setting": "[1]; [4]", "result": 2}, {"measurement": "Neutropenia, Grade 3 (number of patients)", "setting": "[1]; [4]", "result": 2}, {"measurement": "Neutropenia, Grades 1-2 (number of patients)", "setting": "[1]; [4]", "result": 2}, {"measurement": "Thrombocytopenia, Grade 3 (number of patients)", "setting": "[1]; [4]", "result": 0}, {"measurement": "Thrombocytopenia, Grades 1-2 (number of patients)", "setting": "[1]; [4]", "result": 3}, {"measurement": "Vomiting, Grade 3 (number of patients)", "setting": "[1]; [4]", "result": 0}, {"measurement": "Vomiting, Grades 1-2 (number of patients)", "setting": "[1]; [4]", "result": 1}, {"measurement": "Palbociclib dose recommended for phase II trials", "setting": "[1]; days 1-21 of a 28 day cycle with standard doses of weekly cetuximab", "result": 125, "unit": "mg/day"}, {"measurement": "Intra-patient dose reductions", "setting": "[1]; in vivo", "result": "did not occur"}, {"measurement": "Most common AE", "setting": "[1]; in vivo", "result": "Myelosuppression"}, {"measurement": "Maximum tolerated dose (MTD)", "setting": "[1]; palbociclib up to 125 mg/day days 1-21 of 28 with standard weekly cetuximab", "result": "not reached"}, {"measurement": "Anti-proliferative effects", "setting": "Rb-positive cell lines", "result": "potent anti-proliferative effects"}, {"measurement": "Activity in xenografts", "setting": "[2]", "result": "no activity"}, {"measurement": "Systemic exposure versus dose", "setting": "[3]; dose range of 25-150 mg", "result": "dose proportionality"}, {"measurement": "Maximum tolerated dose (MTD)", "setting": "[3]; once daily, administered for 21 days of each 28 day cycle, monotherapy", "result": 125, "unit": "mg"}, {"measurement": "Dose-limiting toxicity (DLT)", "setting": "[3]; palbociclib monotherapy phase I trials", "result": "neutropenia"}]}]}
